From ChEMBL document CHEMBL1133400, “Synthesis and pharmacology of a novel pyrrolo[2,1,5-cd] indolizine (NNC 45-0095), a high affinity non-steroidal agonist for the estrogen receptor” (Bioorg Med Chem Lett, 2000)

Columns and labels:
Ishikawa [1] = experiment: Stimulation of endometrial activity in Ishikawa human endometrial adenocarcinoma cells; type: functional, cell-based
Ishikawa [2] = experiment: Percentp stimulation of alkaline phosphate activity in Ishikawa human endometrial adenocarcinoma cells relative to Moxestrol; type: functional
Estrogen receptor [3] = target: Estrogen receptor (Homo sapiens, UniProt Q92731+P03372); experiment: Binding affinity for estrogen receptor of rabbit uterine […] muscle tissue; type: protein assay, Oryctolagus cuniculus; conditions: target entry is the homologue from another species
Estrogen receptor [4] = target: Estrogen receptor (Mus musculus, UniProt O08537+P19785); experiment: Uterotrophic activity in immature mouse; type: functional, tissue-based, Uterus
[5] = target: Estrogen receptor (Mus musculus) (UniProt O08537+P19785); experiment: Percent maximal relative agonism for uterotrophic activity in immature mouse model; type: functional
Chain of Estrogen receptor (Mus musculus) (O08537 whole entry, looked up): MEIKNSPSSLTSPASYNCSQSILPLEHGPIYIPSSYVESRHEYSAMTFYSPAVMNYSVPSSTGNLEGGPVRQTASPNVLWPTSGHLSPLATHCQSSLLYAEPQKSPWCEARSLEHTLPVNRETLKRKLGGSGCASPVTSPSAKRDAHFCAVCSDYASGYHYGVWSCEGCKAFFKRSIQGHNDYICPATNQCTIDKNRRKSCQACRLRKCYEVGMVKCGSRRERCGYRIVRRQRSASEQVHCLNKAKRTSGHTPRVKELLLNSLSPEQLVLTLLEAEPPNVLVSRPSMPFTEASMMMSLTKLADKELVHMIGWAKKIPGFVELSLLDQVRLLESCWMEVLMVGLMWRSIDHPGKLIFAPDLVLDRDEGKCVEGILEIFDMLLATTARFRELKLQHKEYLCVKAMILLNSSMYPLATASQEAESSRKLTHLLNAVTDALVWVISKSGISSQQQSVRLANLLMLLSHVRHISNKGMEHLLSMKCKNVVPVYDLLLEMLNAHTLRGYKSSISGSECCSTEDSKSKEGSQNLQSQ
Chain of Estrogen receptor (Mus musculus) (P19785 whole entry, looked up): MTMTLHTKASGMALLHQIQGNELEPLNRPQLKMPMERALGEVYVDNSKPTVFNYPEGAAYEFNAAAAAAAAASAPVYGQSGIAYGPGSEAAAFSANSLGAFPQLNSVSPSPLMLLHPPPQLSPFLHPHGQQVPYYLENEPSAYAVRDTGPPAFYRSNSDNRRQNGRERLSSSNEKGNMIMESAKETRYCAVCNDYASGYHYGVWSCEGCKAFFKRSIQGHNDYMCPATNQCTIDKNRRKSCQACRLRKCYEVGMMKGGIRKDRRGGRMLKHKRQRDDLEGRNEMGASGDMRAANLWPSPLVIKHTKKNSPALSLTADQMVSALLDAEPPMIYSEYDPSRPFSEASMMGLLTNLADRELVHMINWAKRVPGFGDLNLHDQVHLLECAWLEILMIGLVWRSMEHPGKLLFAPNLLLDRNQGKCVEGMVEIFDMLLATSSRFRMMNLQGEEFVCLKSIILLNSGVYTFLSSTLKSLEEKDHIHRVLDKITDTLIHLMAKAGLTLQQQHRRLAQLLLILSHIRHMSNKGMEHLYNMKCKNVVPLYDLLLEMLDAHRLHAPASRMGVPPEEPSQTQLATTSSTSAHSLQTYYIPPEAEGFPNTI

| SMILES | EC50 (Ishikawa [1]) [nM] | Emax (Ishikawa [2]) [%] | IC50 (Estrogen receptor [3]) [nM] | EC50 (Estrogen receptor [4]) [nM/g] | Activity [5] [%] |
| --- | --- | --- | --- | --- | --- |
| C#C[C@]1(O)CC[C@H]2C3CCc4cc(O)ccc4[C@H]3[C@@H](OC)C[C@@]21C (single isomer, unassigned) [MOXESTROL] | 0.1 | 100 | 2.5 |  |  |
| CCc1c(-c2ccc(O)cc2)c2ccc3cccc1n32 | 13 | 105 |  | 0.96 | 76 |
